Where two headings read alike, the source gives them in different places.
Assays:
[1] = tested on: diabetes subjects; assay: Effect of cooling the injection site on blood glucose after basal insulin (LANTUS) injection (FIG. 20); type: in vivo, human
Experimental: FIG. 20 is a graph showing results of a study of the effect of applying cooling for regulating the absorption of a drug (insulin) on an analyte level (insulin and/or blood glucose level) over time measured in minutes.
The diabetes subjects under fasting conditions injected their usual basal insulin dose (LANTUS) which is intended to keep their blood glucose level stable. […] Cooling commenced at 2 hours and was applied for 3 hours successfully raising he blood glucose level back to 142 mg/dl.

[2] = tested on: Type I diabetes subjects; assay: Effect of heating or cooling the injection site on blood glucose after basal insulin (LANTUS) injection (FIG. 19); type: in vivo, human; conditions: for ΔBG_2H, blood glucose excursion change from control / ΔBG_3H, blood glucose excursion change from control / ΔBG_4H, blood glucose excursion change from control: fasting
Excerpt: FIG. 19 is a graph showing results of a study of the effect of applying a treatment (cooling or heating) for regulating the absorption of a drug (insulin) on an analyte level (insulin and/or blood glucose level) over time measured in minutes.
The experiment tests the effect of treatment (e.g. cooling and heating) at the injection site on insulin and glucose blood levels during nine hours following long acting, basal insulin (LANTUS) injection. The tested treatments included heating the skin over the injection site to 40° C. and cooling the skin over the injection site to 20° C. Each subject underwent three procedures during three different days including control, heating and cooling in random order, thus each subject served as his/her own control.
Type I diabetes subjects under fasting conditions injected their usual basal insulin dose which is intended to keep their blood glucose level stable. Two hours after injection a stabilization period commenced in which a subject's blood glucose levels was adjusted to a target blood glucose level using IV insulin or IV glucose administration. The starting glucose level was 150 mg/dl±20 mg/dl. […] In the two testing days the heating or cooling elements were attached to the injection site and heating or cooling was started for a period of four hours and no intervention (besides the treatment, i.e. cooling or heating) was performed during this period. The procedure continued for another two hours without intervention. On the control day no intervention or treatment was applied. During the whole procedure blood samples were collected for blood glucose and insulin concentration measurements every 20 minutes. Safety limits of the study were 75 mg/dl as the low limit, and 250 mg/dl as the high limit. If the subject's blood glucose level was below 75 mg/dl, then a 10% glucose solution was given intravenously to increase the subject's blood glucose level. If the subject's blood glucose level was above 250 mg/dl then IV insulin was given to reduce blood glucose level.

[3] = cited from earlier work
[4] = molecular target: T1, albumin (Homo sapiens, UniProt P02768); conditions: once in the circulation; cited from earlier work
T1 construct: host or cells: endogenous albumin of the bloodstream
T1 sequence (P02768 25-609): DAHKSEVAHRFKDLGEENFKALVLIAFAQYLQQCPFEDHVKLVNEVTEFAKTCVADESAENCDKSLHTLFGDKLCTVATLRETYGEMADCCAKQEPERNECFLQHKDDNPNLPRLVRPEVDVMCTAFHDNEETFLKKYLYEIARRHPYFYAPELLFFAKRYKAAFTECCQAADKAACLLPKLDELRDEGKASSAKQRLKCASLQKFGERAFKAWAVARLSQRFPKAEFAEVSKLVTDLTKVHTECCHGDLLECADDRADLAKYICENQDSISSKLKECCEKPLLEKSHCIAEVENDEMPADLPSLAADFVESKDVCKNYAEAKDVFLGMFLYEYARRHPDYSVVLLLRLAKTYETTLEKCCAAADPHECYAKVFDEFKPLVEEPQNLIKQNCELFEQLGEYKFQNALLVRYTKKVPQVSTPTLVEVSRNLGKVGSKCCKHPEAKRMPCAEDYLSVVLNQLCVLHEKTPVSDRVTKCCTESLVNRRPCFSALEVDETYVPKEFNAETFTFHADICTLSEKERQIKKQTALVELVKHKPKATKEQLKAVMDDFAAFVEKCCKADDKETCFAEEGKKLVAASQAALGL

insulin glargine [LANTUS]
blood glucose level ([1]; after cooling applied for 3 hours, commenced at 2 hours): 142 mg/dL
initial blood glucose level ([1]; at injection, fasting): 143 mg/dL
blood glucose level ([1]; within 2 hours after injection, before cooling): 94 mg/dL
increase in blood glucose levels ([2]; applying cooling to the injection site (text b295)): 25 mg/dL
average decrease in blood glucose compared to no treatment at all ([2]; applying heat to the injection site (text b295)): 40 mg/dL
ΔBG_2H, blood glucose excursion change from control ([2]; cooling skin over injection site to 20° C., after 2 hours): +30 mg/dl
ΔBG_3H, blood glucose excursion change from control ([2]; cooling skin over injection site to 20° C., after 3 hours): +42 mg/dl
ΔBG_4H, blood glucose excursion change from control ([2]; cooling skin over injection site to 20° C., after 4 hours): +50 mg/dl
blood glucose levels over time (FIG. 19) ([2]; cooling the injection site): increased
increase in blood glucose compared to no intervention ([2]; cooling the injection site, after 2 hours): about 42 mg/dl
increase in blood glucose compared to no intervention ([2]; cooling the injection site, after 3 hours): ~59 mg/dL
increase in blood glucose compared to no intervention ([2]; cooling the injection site, after 4 hours): ~65 mg/dL
ΔBG_2H, blood glucose excursion change from control ([2]; heating skin over injection site to 40° C., after 2 hours): -29 mg/dL
ΔBG_3H, blood glucose excursion change from control ([2]; heating skin over injection site to 40° C., after 3 hours): -32 mg/dL
ΔBG_4H, blood glucose excursion change from control ([2]; heating skin over injection site to 40° C., after 4 hours): -32 mg/dL
blood glucose levels over time (FIG. 19) ([2]; heating the injection site): decreased
average decrease in blood glucose compared to no intervention ([2]; heating the injection site, after 2 hours): 15 mg/dL
average decrease in blood glucose compared to no intervention ([2]; heating the injection site, after 3 hours): 21 mg/dL
average decrease in blood glucose compared to no intervention ([2]; heating the injection site, after 4 hours): 26 mg/dL
blood glucose levels over time (FIG. 19) ([2]; no intervention applied to the injection site): stable around the base line
solubility ([3]; neutral pH (pH 7.4)): forms precipitates
solubility ([3]; pH 4): soluble

insulin detemir
albumin bound [4]: 98%

From US20200038600A1, “DEVICE AND METHOD FOR DRUG DELIVERY” (Insuline Medical Ltd., priority 2016, published 2020)
